Columns and labels:
[1] = In vitro cytotoxicity assay, CCK-8 method; type: cell-based; details: human, HepG2 cells
Experimental: In vitro cytotoxicity assay for the compounds disclosed herein was performed in HepG2 cells using the CCK-8 method. HepG2 cells (Beina Bio) in the logarithmic growth phase were collected, the concentration of cell suspension was adjusted, and then the cells were plated on a 96-well cell culture plate at 50,000 cells/well. The cells were then incubated overnight in a cell incubator of 5% […] at 37° C., and after 80-90% cell confluence was achieved, test compounds or vehicle (DMSO) at various concentration gradients were added after medium change. The plate was incubated in a cell incubator of 5% […] at 37° C. for 48 h. After the treatment, the medium in the plate was discarded. The plate was washed twice with PBS, added with CCK-8 working solution (Beyotime) at 100 μL per well, and then incubated at 37° C. for 1.5 h away from light. Absorbance at OD450nm was measured for each well on a microplate reader, and CC50 value of each compound was analyzed and calculated.

[2] = In vitro metabolic stability, rat liver microsome; type: in vitro ADME; details: liver microsomes, 1 mg/mL liver microsome protein, 37° C., NA = essentially not metabolized, read-out: T1/2 in rat liver microsome
Experimental: (§1) The in vitro metabolic stability of the compounds disclosed herein was determined through incubation of liver microsomes of various species. […] At each time point, 100 μL of the reaction mixture was added into a centrifuge tube containing 400 μL of internal standard working solution (containing a 200 ng/mL solution of dexamethasone, diclofenac, tolbutamide and labetalol in acetonitrile) precooled at 0° C. so as to terminate the reaction, and the mixture was then centrifuged at 10,000 g for 10 min at 4° C. The supernatant was collected for LC-MS assay so as to obtain the values of in vitro metabolic half-life of the test compounds in liver microsomes of various species.

[3] = target: hP2X3 (human purinergic P2X receptor subtype 3) (Homo sapiens (Human), UniProt P56373); experiment: FLIPR calcium assay, hP2X3 expressed in HEK293 cells; type: cell-based; details: read-out: P2X3 IC50
hP2X3 (human purinergic P2X receptor subtype 3), sequence (P56373 whole entry): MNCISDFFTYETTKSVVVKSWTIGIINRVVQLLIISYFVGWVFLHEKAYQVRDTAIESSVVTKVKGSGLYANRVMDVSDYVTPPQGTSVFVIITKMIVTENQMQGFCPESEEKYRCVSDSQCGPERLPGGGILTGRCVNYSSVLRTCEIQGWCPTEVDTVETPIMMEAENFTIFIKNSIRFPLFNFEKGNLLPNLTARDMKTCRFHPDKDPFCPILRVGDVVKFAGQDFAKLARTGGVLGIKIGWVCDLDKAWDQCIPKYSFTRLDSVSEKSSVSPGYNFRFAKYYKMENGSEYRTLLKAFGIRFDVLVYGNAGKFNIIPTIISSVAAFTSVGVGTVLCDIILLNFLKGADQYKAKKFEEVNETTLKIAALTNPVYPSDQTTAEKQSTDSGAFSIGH

[4] = In vitro metabolic stability, human liver microsome; type: in vitro ADME; details: liver microsomes, 1 mg/mL liver microsome protein, 37° C., NA = essentially not metabolized, read-out: T1/2 in human liver microsome
Experimental: as §1

[5] = target: hP2X2/3 (heterodimeric receptors formed by human purinergic P2X receptors subtype 2 and subtype 3) (Homo sapiens (Human), UniProt P56373+Q9UBL9); experiment: FLIPR calcium assay, hP2X2/3 expressed in HEK293 cells (P2X2/3 receptor selectivity); type: cell-based; details: for IC50: HEK293 cells expressing hP2X2/3, agonist BZ-ATP 5 μM, unit inferred
hP2X2/3 (heterodimeric receptors formed by human purinergic P2X receptors subtype 2 and subtype 3), sequence (P56373 whole entry): as above
hP2X2/3 (heterodimeric receptors formed by human purinergic P2X receptors subtype 2 and subtype 3), sequence (Q9UBL9 whole entry): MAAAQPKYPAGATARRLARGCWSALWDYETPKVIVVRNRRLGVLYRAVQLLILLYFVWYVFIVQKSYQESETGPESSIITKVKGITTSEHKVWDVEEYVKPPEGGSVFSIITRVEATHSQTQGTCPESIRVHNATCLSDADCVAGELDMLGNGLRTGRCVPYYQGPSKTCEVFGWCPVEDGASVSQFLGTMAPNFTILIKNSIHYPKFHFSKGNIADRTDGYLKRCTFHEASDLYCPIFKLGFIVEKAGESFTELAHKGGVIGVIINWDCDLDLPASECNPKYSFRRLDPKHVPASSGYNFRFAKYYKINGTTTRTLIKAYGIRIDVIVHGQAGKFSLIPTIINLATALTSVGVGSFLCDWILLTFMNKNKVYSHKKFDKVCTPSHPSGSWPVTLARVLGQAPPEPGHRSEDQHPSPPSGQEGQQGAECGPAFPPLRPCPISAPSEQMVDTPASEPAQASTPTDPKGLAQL

[6] = In vitro metabolic stability, guinea pig liver microsome; type: in vitro ADME; details: liver microsomes, 1 mg/mL liver microsome protein, 37° C., NA = essentially not metabolized, read-out: T1/2 in guinea pig liver microsome
Experimental: The in vitro metabolic stability of the compounds disclosed herein was determined through incubation of liver microsomes of various species. A proper amount of test compound was added into a liver microsome reaction system (1 mg/mL liver microsome protein, 25 U/mL glucose-6 phosphate dehydrogenase, 1 mM NADP, 6 mM D-glucose 6-phosphate and 5 mM MgCl2), and then the mixture was incubated in a water bath kettle at 37° C. to start the reaction. At each time point, 100 μL of the reaction mixture was added into a centrifuge tube containing 400 μL of internal standard working solution (containing a 200 ng/mL solution of dexamethasone, diclofenac, tolbutamide and labetalol in acetonitrile) precooled at 0° C. so as to terminate the reaction, and the mixture was then centrifuged at 10,000 g for 10 min at 4° C. The supernatant was collected for LC-MS assay so as to obtain the values of in vitro metabolic half-life of the test compounds in liver microsomes of various species.

CC(=O)Nc1cc(F)c(-c2nc3cc(C)ccn3c2C[C@H]2CN(C(C)=O)CCO2)c(F)c1 [Compound 167, (S)—N-(4-(3-((4-acetylmorpholin-2-yl)methyl)-7-methylimidazo[1,2-a]pyridin-2-yl)-3,5-difluorophenyl)acetamide]
CC50 at 48 h [1]: > 100 µM

COC(=O)N1CCO[C@@H](Cc2c(-c3c(F)cc(NC(=O)CCC(=O)O)cc3F)nc3cc(C)ccn23)C1 [Compound 25, (S)-4-((3,5-difluoro-4-(3-((4-(methoxycarbonyl)morpholin-2-yl)methyl)-7-methylimidazo[1,2-a]pyridin-2-yl)-phenyl)-amino)-4-oxobutanoic acid]
half-life [2]: 3.8 h | CC50 at 48 h [1]: > 100 µM | IC50 [3]: < 0.01 µM | half-life [4]: 4.97 h | Folds of selectivity [5]: A (key: A: folds of selectivity >1000; B: 200< folds of selectivity ≤1000; C: folds of selectivity ≤200) | IC50 [5]: > 60 µM

COC(=O)N1CCO[C@@H](Cc2c(-c3ccc(S(N)(=O)=O)cc3C(F)(F)F)nc3cc(C)ccn23)C1 [Compound 189, methyl (S)-2-((7-methyl-2-(4-sulfamoyl-2-(trifluoromethyl)phenyl)imidazo[1,2-a]pyridin-3-yl)methyl)morpholine-4-carboxylate]
IC50 [3]: 0.01 µM | half-life [4]: 2.41 h

CC(=O)N1CCO[C@@H](Cc2c(-c3c(F)cc(-c4nnc[nH]4)cc3F)nc3cc(Cl)ccn23)C1 [Compound 166]
CC50 at 48 h [1]: > 100 µM | IC50 [3]: < 0.01 µM | Folds of selectivity [5]: A (key: A: folds of selectivity >1000; B: 200< folds of selectivity ≤1000; C: folds of selectivity ≤200) | IC50 [5]: > 60 µM

COC(=O)N1CCO[C@@H](Cc2c(-c3c(F)cc(-c4cccs4)cc3F)nc3cc(C)ccn23)C1 [Compound 12, methyl (S)-2-((2-(2,6-difluoro-4-(thiophen-2-yl)phenyl)-7-methylimidazo[1,2-a]pyridin-3-yl)methyl)morpholine-4-carboxylate]
half-life [2]: 0.13 h | CC50 at 48 h [1]: 52.7 µM | half-life [4]: 1.53 h | half-life [6]: 0.126 h

CC(=O)N1CCO[C@@H](Cc2c(-c3c(F)cc(-n4ccnc4)cc3F)nc3cc(Cl)ccn23)C1 [Compound 158, (S)-1-(2-((7-chloro-2-(2,6-difluoro-4-(1H-imidazol-1-yl)phenyl)imidazo[1,2-a]pyridin-3-yl)methyl)morpholino)ethan-1-one]
CC50 at 48 h [1]: > 100 µM | IC50 [3]: < 0.01 µM | Folds of selectivity [5]: A (key: A: folds of selectivity >1000; B: 200< folds of selectivity ≤1000; C: folds of selectivity ≤200) | IC50 [5]: > 60 µM

CC(=O)N1CCO[C@@H](Cc2c(-c3c(F)cc(S(N)(=O)=O)cc3F)nc3cc(C)ccn23)C1 [Compound 173, (S)-4-(3-((4-acetylmorpholin-2-yl)methyl)-7-methylimidazo[1,2-a]pyridin-2-yl)-3,5-difluorobenzenesulfonamide]
half-life [2]: 1.69 h | CC50 at 48 h [1]: > 200 µM | IC50 [3]: 0.0018 µM | Folds of selectivity [5]: 18811 | IC50 [5]: 33.9 µM | half-life [6]: 10.8 h

COC(=O)N1CCO[C@@H](Cc2c(-c3c(F)cc(NC(=O)CC4(C(=O)O)CC4)cc3F)nc3cc(C)ccn23)C1 [Compound 61, (S)-1-(2-((3,5-difluoro-4-(3-((4-(carbomethoxy<methoxycarbonyl>)morpholin-2-yl)methyl)-7-methylimidazo [1,2-a]pyridin-2-yl)phenyl)amino)-2-carbonylethyl)cyclopropanecarboxylic acid]
IC50 [3]: < 0.01 µM | Folds of selectivity [5]: A (key: A: folds of selectivity >1000; B: 200< folds of selectivity ≤1000; C: folds of selectivity ≤200) | IC50 [5]: > 60 µM

COC(=O)N1CCO[C@@H](Cc2c(-c3c(F)cc(S(C)(=O)=O)cc3F)nc3cc(C)ccn23)C1 [Compound 175, methyl (S)-2-((2-(2,6-difluoro-4-(methylsulfonyl)phenyl)-7-methylimidazo[1,2-a]pyridin-3-yl)methyl)morpholine-4-carboxylate]
half-life [2]: > 0.5 h | IC50 [3]: > 10 µM | half-life [4]: > 0.5 h | half-life [6]: > 0.5 h

COC(=O)N1CCO[C@@H](Cc2c(-c3c(F)cc(-c4cccn4C)cc3F)nc3cc(C)ccn23)C1 [Compound 13, methyl (S)-2-((2-(2,6-difluoro-4-(1-methyl-1H-pyrrol-2-yl)phenyl)-7-methylimidazo[1,2-a]pyridin-3-yl)methyl)morpholine-4-carboxylate]
half-life [2]: 0.0373 h | CC50 at 48 h [1]: 66.5 µM | half-life [4]: 1.03 h | half-life [6]: 0.0375 h

COC(=O)N1CCO[C@@H](Cc2c(-c3c(F)cc(S(N)(=O)=O)cc3Cl)nc3cc(C)ccn23)C1 [Compound 177, methyl (S)-2-((2-(2-chloro-6-fluoro-4-sulfamoylphenyl)-7-methylimidazo[1,2-a]pyridin-3-yl)methyl)morpholine-4-carboxylate]
IC50 [3]: 0.0011 µM | half-life [4]: 5.41 h

CC(=O)N1CCO[C@@H](Cc2c(-c3c(F)cc(-n4cccn4)cc3F)nc3cc(Cl)ccn23)C1 [Compound 160, (S)-1-(2-((7-chloro-2-(2,6-difluoro-4-(1H-pyrazol-1-yl)phenyl)imidazo[1,2-a]pyridin-3-yl)methyl)morpholino)ethan-1-one]
CC50 at 48 h [1]: > 100 µM

CC(=O)N1CCO[C@@H](Cc2c(-c3c(F)cc(S(N)(=O)=O)cc3F)nc3cc(Cl)ccn23)C1 [Compound 174, (S)-4-(3-((4-acetylmorpholin-2-yl)methyl)-7-chloroimidazo[1,2-a]pyridin-2-yl)-3,5-difluorobenzenesulfonamide]
half-life [2]: 6.64 h | CC50 at 48 h [1]: > 200 µM | IC50 [3]: 0.0016 µM | half-life [6]: 18.5 h

COC(=O)N1CCO[C@@H](Cc2c(-c3ccc(S(N)(=O)=O)cc3Cl)nc3cc(Cl)ccn23)C1 [Compound 178, methyl (S)-2-((7-chloro-2-(2-chloro-4-sulfamoylphenyl)imidazo[1,2-a]pyridin-3-yl)methyl)morpholine-4-carboxylate]
IC50 [3]: 0.0001 µM | half-life [4]: 20.6 h

CC(=O)N1CCO[C@@H](Cc2c(-c3c(F)cc(-c4ncco4)cc3F)nc3cc(C)ccn23)C1 [Compound 163, (S)-1-(2-((2-(2,6-difluoro-4-(oxazol-2-yl)phenyl)-7-methylimidazo[1,2-a]pyridin-3-yl)methyl)morpholino)ethan-1-one]
CC50 at 48 h [1]: > 100 µM

COC(=O)N1CCO[C@@H](Cc2c(-c3c(F)cc(-c4ccco4)cc3F)nc3cc(C)ccn23)C1 [Compound 11, methyl (S)-2-((2-(2,6-difluoro-4-(furan-2-yl)phenyl)-7-methylimidazo[1,2-a]pyridin-3-yl)methyl)morpholine-4-carboxylate]
half-life [2]: 0.0942 h | CC50 at 48 h [1]: 79.4 µM | half-life [4]: 2.52 h | half-life [6]: 0.0712 h

CC(=O)N1CCO[C@@H](Cc2c(-c3c(F)cc(-c4ncco4)cc3F)nc3cc(Cl)ccn23)C1 [Compound 159, (S)-1-(2-((7-chloro-2-(2,6-difluoro-4-(oxazol-2-yl)phenyl)imidazo[1,2-a]pyridin-3-yl)methyl)morpholino)ethan-1-one]
CC50 at 48 h [1]: > 100 µM

CNC(=O)c1cc(F)c(-c2oc3cc(C)cnc3c2C[C@H]2CN(C(=O)OC)CCO2)c(F)c1 [Compound 54, methyl (S)-2-((2-(2,6-difluoro-4-(methylcarbamoyl)phenyl)-6-methylfurano[3,2-b]pyridin-3-yl)methyl)morpholine-4-carboxylate]
IC50 [3]: < 0.01 µM | Folds of selectivity [5]: A (key: A: folds of selectivity >1000; B: 200< folds of selectivity ≤1000; C: folds of selectivity ≤200) | IC50 [5]: > 60 µM

COC(=O)N1CCO[C@@H](Cc2c(-c3c(F)cc(-c4ccc(C#N)[nH]4)cc3F)nc3cc(C)ccn23)C1 [Compound 138, methyl (S)-2-((2-(2,6-difluoro-4-(5-cyano-1H-pyrrol-2-yl)phenyl)-7-methylimidazo[1,2-a]pyridin-3-yl)methyl)morpholine-4-carboxylate]
IC50 [3]: < 0.01 µM | Folds of selectivity [5]: A (key: A: folds of selectivity >1000; B: 200< folds of selectivity ≤1000; C: folds of selectivity ≤200) | IC50 [5]: > 60 µM
